In US11213499B1, “Use of 3,3′-diselenodipropionic acid (DSePA) as an anticancer agent” (Secretary, Department of Atomic Energy, priority 2020, dated 2022):

Tested on: human A549 xenograft
Test: Anti-tumor effect in human A549 xenograft model
Type: in vivo
Settings: for mortality: study period of 30 days
Description: These xenografts representative of NSCLC and CML respectively are considered to be highly aggressive and resistant to chemotherapy treatment. Therefore, any new chemotherapy agent against these cancers is very much sought. For the experiment, a total of 12 mice bearing A549 or K562 tumors of volume in the range of ˜50 mm^3 were divided into two groups (I & II), each group comprising of six mice. […] The group II was administered DSePA daily dissolved in sterile saline through oral route at a dosage of 1 mg/Kg body weight. The tumor volume and body weight of mice from each group were monitored daily for a total period of 30 days from the day of start. The animals were also checked for mortality if any throughout the study period. The experiment in A549 tumor was repeated three times (n=18 for each group) and the experiment in K562 tumor was repeated two times (n=12 for each group). […] This is the first study to show the anticancer activity of DSePA per se using xenograft model of human lung cancer (A549) and human leukemia (K562) cells in mice. Discovery of the application of the anticancer activity of DSePA is a novel invention in context of its probable usage in treatment for lung and leukemia cancer. More specifically the invention proposes a treatment regime and route of administering DSePA to inhibit the growth of human NSCLC (A549) and CML (K562).
For the optimization of the oral dosage of DSePA, a total of 24 mice bearing A549 or K562 xenograft of volume in the range of ˜50 mm^3 were divided into four groups (I-IV), each group comprising of six mice. […] The groups II, III and IV were administered DSePA dissolved in sterile saline through oral route at the dosage of 1, 2.5 and 5 mg/kg body weight respectively. The administration of DSePA was performed daily for 4 weeks. The tumor volume and body weight of mice from each group were monitored daily for a total period of 30 days from the day of start. The animals were also checked for mortality if any throughout the study period.
Animal maintenance—All animal studies were approved by the Institutional Animal Ethics Committee. Animals were housed under standard conditions (20±2° C., 65-70% humidity, 12 h/12 h day/night cycle, balanced laboratory diet and tap water ad libitum.
Xenograft tumor model-A549 and K562 tumor models were developed by Anticancer Drug Screening Facility of Advanced Centre for Treatment, Research and Education in Cancer (ACTREC), India. Briefly, Male/female NOD-SCID aged 6-7 weeks were housed in the laboratory animal facility of ACTREC. Donor mice carrying K562 or A549 xenografts were developed by injecting 2×10^6 cells in 100 μl of DMEM/RPMI, subcutaneously in their right flank. When tumors attained the size of approximately 2000 mm^3, the animals were sacrificed. Tumors were obtained and further cut into 2-3 mm fragments and implanted subcutaneously in the right flank of 6-7 weeks old recipient SCID mice. Tumors were allowed to grow to a size of approximately 50 mm^3 following which animals were divided into groups of six animals each for evaluation. A fresh DSePA solution was prepared by dissolution in sterile saline before each administration by intraperitoneal/oral route. The tumor efficacy of DSePA was determined by monitoring parameters like tumor volume and T/C. Tumors were assumed spherical and volume was calculated using following equations (1 & 2): […]
Where d1 (mm) and d2 (mm) are diameters measured in two perpendicular planes. T/C is defined as the ratio of the mean tumor volume of DSePA treated groups with the mean tumor volume of control group on the day of observation.

[1] = 1 mg/kg body weight daily oral, day 1
[2] = 1 mg/kg body weight daily oral, day 5
[3] = 1 mg/kg body weight daily oral, day 9
[4] = 1 mg/kg body weight daily oral, day 12
[5] = 1 mg/kg body weight daily oral, day 15
[6] = 1 mg/kg body weight daily oral, day 18
[7] = 1 mg/kg body weight daily oral, day 21
[8] = 1 mg/kg body weight daily oral, day 24
[9] = 1 mg/kg body weight daily oral, day 27
[10] = 1 mg/kg body weight daily oral, day 31
[11] = 2.5 mg/kg body weight daily oral, day 1
[12] = 2.5 mg/kg body weight daily oral, day 5
[13] = 2.5 mg/kg body weight daily oral, day 9
[14] = 2.5 mg/kg body weight daily oral, day 12
[15] = 2.5 mg/kg body weight daily oral, day 15
[16] = 2.5 mg/kg body weight daily oral, day 18
[17] = 2.5 mg/kg body weight daily oral, day 21
[18] = 2.5 mg/kg body weight daily oral, day 24
[19] = 2.5 mg/kg body weight daily oral, day 27
[20] = 2.5 mg/kg body weight daily oral, day 31
[21] = 5 mg/kg body weight daily oral, day 1
[22] = 5 mg/kg body weight daily oral, day 5
[23] = 5 mg/kg body weight daily oral, day 9
[24] = 5 mg/kg body weight daily oral, day 12
[25] = 5 mg/kg body weight daily oral, day 15
[26] = 5 mg/kg body weight daily oral, day 18
[27] = 5 mg/kg body weight daily oral, day 21
[28] = 5 mg/kg body weight daily oral, day 24
[29] = 5 mg/kg body weight daily oral, day 27
[30] = 5 mg/kg body weight daily oral, day 31

SMILES: O=C(O)CC[Se][Se]CCC(=O)O [DSePA, 3,3′-diselenodipropionic acid]
- tumor growth inhibition vs control (1 mg/Kg body weight daily oral, three independent experiments): significantly (P<0.05) inhibited the growth
- overall reduction (relative tumor volume vs tumor control) (1 mg/Kg orally daily, end of study period (30 days), n=18, P=0.0009): ~2 folds
- mortality (1 mg/Kg orally daily, three independent studies): did not show any mortality
- % S (Survival) [1]: 100%
- RTV (Relative Tumor Volume) [1]: 1
- T/C (T (test)/C (control)) [1]: 1
- % S (Survival) [2]: 100%
- RTV (Relative Tumor Volume) [2]: 1.23
- T/C (T (test)/C (control)) [2]: 0.98
- % S (Survival) [3]: 100%
- RTV (Relative Tumor Volume) [3]: 1.64
- T/C (T (test)/C (control)) [3]: 0.98
- % S (Survival) [4]: 100%
- RTV (Relative Tumor Volume) [4]: 1.83
- T/C (T (test)/C (control)) [4]: 0.87
- % S (Survival) [5]: 100%
- RTV (Relative Tumor Volume) [5]: 1.80
- T/C (T (test)/C (control)) [5]: 0.76
- % S (Survival) [6]: 100%
- RTV (Relative Tumor Volume) [6]: 2.36
- T/C (T (test)/C (control)) [6]: 0.71
- % S (Survival) [7]: 100%
- RTV (Relative Tumor Volume) [7]: 2.47
- T/C (T (test)/C (control)) [7]: 0.68
- % S (Survival) [8]: 100%
- RTV (Relative Tumor Volume) [8]: 2.66
- T/C (T (test)/C (control)) [8]: 0.52
- % S (Survival) [9]: 100%
- RTV (Relative Tumor Volume) [9]: 2.94
- T/C (T (test)/C (control)) [9]: 0.47
- % S (Survival) [10]: 100%
- RTV (Relative Tumor Volume) [10]: 3.70
- T/C (T (test)/C (control)) [10]: 0.45
- % S (Survival) [11]: 100%
- RTV (Relative Tumor Volume) [11]: 1
- T/C (T (test)/C (control)) [11]: 1
- % S (Survival) [12]: 100%
- RTV (Relative Tumor Volume) [12]: 0.99
- T/C (T (test)/C (control)) [12]: 0.79
- % S (Survival) [13]: 100%
- RTV (Relative Tumor Volume) [13]: 1.10
- T/C (T (test)/C (control)) [13]: 0.66
- % S (Survival) [14]: 100%
- RTV (Relative Tumor Volume) [14]: 1.25
- T/C (T (test)/C (control)) [14]: 0.59
- % S (Survival) [15]: 100%
- RTV (Relative Tumor Volume) [15]: 1.03
- T/C (T (test)/C (control)) [15]: 0.43
- % S (Survival) [16]: 100%
- RTV (Relative Tumor Volume) [16]: 1.31
- T/C (T (test)/C (control)) [16]: 0.39
- % S (Survival) [17]: 100%
- RTV (Relative Tumor Volume) [17]: 1.40
- T/C (T (test)/C (control)) [17]: 0.38
- % S (Survival) [18]: 100%
- RTV (Relative Tumor Volume) [18]: 1.81
- T/C (T (test)/C (control)) [18]: 0.35
- % S (Survival) [19]: 100%
- RTV (Relative Tumor Volume) [19]: 1.96
- T/C (T (test)/C (control)) [19]: 0.31
- % S (Survival) [20]: 100%
- RTV (Relative Tumor Volume) [20]: 2.84
- T/C (T (test)/C (control)) [20]: 0.35
- % S (Survival) [21]: 100%
- RTV (Relative Tumor Volume) [21]: 1
- T/C (T (test)/C (control)) [21]: 1
- % S (Survival) [22]: 100%
- RTV (Relative Tumor Volume) [22]: 0.94
- T/C (T (test)/C (control)) [22]: 0.75
- % S (Survival) [23]: 100%
- RTV (Relative Tumor Volume) [23]: 1.29
- T/C (T (test)/C (control)) [23]: 0.76
- % S (Survival) [24]: 100%
- RTV (Relative Tumor Volume) [24]: 1.30
- T/C (T (test)/C (control)) [24]: 0.62
- % S (Survival) [25]: 100%
- RTV (Relative Tumor Volume) [25]: 1.19
- T/C (T (test)/C (control)) [25]: 0.50
- % S (Survival) [26]: 100%
- RTV (Relative Tumor Volume) [26]: 2.22
- T/C (T (test)/C (control)) [26]: 0.67
- % S (Survival) [27]: 100%
- RTV (Relative Tumor Volume) [27]: 2.34
- T/C (T (test)/C (control)) [27]: 0.65
- % S (Survival) [28]: 100%
- RTV (Relative Tumor Volume) [28]: 2.94
- T/C (T (test)/C (control)) [28]: 0.57
- % S (Survival) [29]: 100%
- RTV (Relative Tumor Volume) [29]: 2.92
- T/C (T (test)/C (control)) [29]: 0.47
- % S (Survival) [30]: 100%
- RTV (Relative Tumor Volume) [30]: 5.30
- T/C (T (test)/C (control)) [30]: 0.65
- tumor growth inhibition vs control (dosage optimization, 1 mg/kg body weight daily oral for 4 weeks): significantly (P<0.05) inhibited the growth of A549 tumor from day 21 onwards
- tumor growth inhibition vs control (dosage optimization, 2.5 mg/kg body weight daily oral for 4 weeks): significantly (P<0.05) inhibited the growth of A549 tumor from day 21 onwards
- tumor growth inhibition vs control (dosage optimization, 5 mg/kg body weight daily oral, experimental end point (31st day)): did not show any significant suppression of A549 tumor
- mortality (dosage optimization, 1, 2.5 and 5 mg/kg daily oral): did not show any mortality
- T/C achieved (lung model, 1 mg/kg body weight daily oral): ≤ 0.42
- minimum dosage to achieve optimum efficacy (oral daily): 1 mg/kg body weight
